Measurements as given in ChEMBL document CHEMBL3286231, “Synthesis and biological effects of new hybrid compounds composed of benzylguanidines and the alkylating group of busulfan on neuroblastoma cells” (Bioorg Med Chem Lett, 2014).
Active and inactive are the calls of the source.

Columns and labels:
SK-N-SH [1] = assay: Antiproliferative activity against human SK-N-SH cells after 72 hrs by MTT assay; assay type: functional, cell-based
SIMA [2] = assay: Increase in glycolysis in human SiMa cells assessed as conversion of glucose to lactate at 100 uM after 12 hrs relative to untreated control; assay type: functional
Kelly [3] = assay: Antiproliferative activity against human Kelly cells after 72 hrs by MTT assay; assay type: functional, cell-based
LS [4] = assay: Antiproliferative activity against human LS cells after 72 hrs by MTT assay; assay type: functional, cell-based
SIMA [5] = assay: Antiproliferative activity against human SiMa cells after 72 hrs by MTT assay; assay type: functional, cell-based
LS [6] = assay: (§1) Increase in glycolysis in human LS cells assessed as conversion of glucose to lactate at 100 uM after 12 hrs relative to untreated control; assay type: functional
Kelly [7] = assay: (§2) Increase in glycolysis in human Kelly cells assessed as conversion of glucose to lactate at 100 uM after 12 hrs relative to untreated control; assay type: functional
SIMA [8] = assay: Antiproliferative activity against human SiMa cells at 10 to 100 uM after 72 hrs by MTT assay; assay type: functional, cell-based
Kelly [9] = assay: Antiproliferative activity against human Kelly cells at 10 to 100 uM after 72 hrs by MTT assay; assay type: functional, cell-based
SK-N-SH [10] = assay: Antiproliferative activity against human SK-N-SH cells at 10 to 100 uM after 72 hrs by MTT assay; assay type: functional, cell-based
LS [11] = assay: Antiproliferative activity against human LS cells at 10 to 100 uM after 72 hrs by MTT assay; assay type: functional, cell-based
[12] = as §1; assay type: functional
[13] = as §2; assay type: functional

Measured: Activity

CS(=O)(=O)OCCCCOc1cccc(CNC(=N)N)c1
active: SK-N-SH [1] Dose-dependent effect | SIMA [2] | Kelly [3] Dose-dependent effect | LS [4] Dose-dependent effect | SIMA [5] Dose-dependent effect | LS [6] | Kelly [7]

CS(=O)(=O)OCCCCOS(C)(=O)=O
inactive: SIMA [2] | LS [6] | Kelly [7]
active: SIMA [8] | Kelly [9] | SK-N-SH [10] | LS [11]

N=C(N)NCc1cccc(I)c1 [IOBENGUANE]
81%: [12]
98%: SIMA [2]
74%: [13]
active: SIMA [8] | Kelly [9] | SK-N-SH [10] | LS [11]

CS(=O)(=O)OCCCCOc1ccc(CNC(=N)N)cc1
active: SK-N-SH [1] Dose-dependent effect | SIMA [2] | Kelly [3] Dose-dependent effect | LS [4] Dose-dependent effect | SIMA [5] Dose-dependent effect | LS [6] | Kelly [7]
